Data published in ChEMBL document CHEMBL5346907, “Discovery of a novel oral type Ⅰ CDK8 inhibitor against acute myeloid leukemia” (Eur J Med Chem, 2023).

Columns and labels:
[1] = AUC (0 to infinity) in Sprague-Dawley rat at 2 mg/kg, iv; assay type: ADME, organism-based; set-up: dose 2 mg/kg, route iv; details: in vivo
[2] = biological target: High affinity nerve growth factor receptor (Homo sapiens) (UniProt P04629); test: Inhibition of TRKA (unknown origin) at 1 uM preincubated for 10 mins followed by substrate addition measured for 60 to 120 mins by HTRF assay relative to control; details: time 70-130 min
[3] = biological target: Activated CDC42 kinase 1 (Homo sapiens) (UniProt Q07912); test: Inhibition of ACK (unknown origin) at 1 uM preincubated for 10 mins followed by substrate addition measured for 60 to 120 mins by HTRF assay relative to control; details: time 70-130 min
[4] = Half life in Sprague-Dawley rat at 2 mg/kg, iv; assay type: ADME, organism-based; details: in vivo
[5] = biological target: Tyrosine-protein kinase ABL1 (Homo sapiens) (UniProt P00519); test: Inhibition of ABL1 (unknown origin) at 1 uM preincubated for 10 mins followed by substrate addition measured for 60 to 120 mins by HTRF assay relative to control; details: time 70-130 min
[6] = organism: Homo sapiens; test: Inhibition of FYN a (unknown origin) at 1 uM preincubated for 10 mins followed by substrate addition measured for 60 to 120 mins by HTRF assay relative to control; details: time 70-130 min
[7] = biological target: Focal adhesion kinase 1 (Homo sapiens) (UniProt Q05397); test: Inhibition of FAK (unknown origin) at 1 uM preincubated for 10 mins followed by substrate addition measured for 60 to 120 mins by HTRF assay relative to control; details: time 70-130 min
[8] = test system: HL-60; test: Induction of apoptosis in human HL-60 cells assessed as viable cells at 1 uM incubated for 48 hrs by annexin V-FITC/PI staining based flow cytometry (reference value: 96.5 %); assay type: functional; details: read-out: Activity
[9] = Acute toxicity in C57BL/6 mouse assessed as histopathological change in spleen at 2000 mg/kg, IG measured for 14 days by H&E staining based analysis; assay type: organism-based; details: in vivo, po, 336 h, time 14 day
[10] = test system: HL-60; test: Induction of apoptosis in human HL-60 cells assessed as necrotic cells at 1 uM incubated for 48 hrs by annexin V-FITC/PI staining based flow cytometry (reference value: 0.26 %); assay type: functional
[11] = biological target: CDK8/Cyclin C (Homo sapiens) (UniProt P49336+P24863); test: Inhibition of CDK8/Cyclin C (unknown origin) at 1 uM preincubated for 10 mins followed by substrate addition measured for 60 to 120 mins by HTRF assay relative to control; assay type: protein-complex assay; details: time 70-130 min
[12] = biological target: Tyrosine-protein kinase TXK (Homo sapiens) (UniProt P42681); test: Inhibition of TXK (unknown origin) at 1 uM preincubated for 10 mins followed by substrate addition measured for 60 to 120 mins by HTRF assay relative to control; details: time 70-130 min
[13] = biological target: Tyrosine-protein kinase Lyn (Homo sapiens) (UniProt P07948); test: Inhibition of LYN a (unknown origin) at 1 uM preincubated for 10 mins followed by substrate addition measured for 60 to 120 mins by HTRF assay relative to control; details: time 70-130 min
[14] = biological target: Vascular endothelial growth factor receptor 3 (Homo sapiens) (UniProt P35916); test: Inhibition of FLT4 (unknown origin) at 1 uM preincubated for 10 mins followed by substrate addition measured for 60 to 120 mins by HTRF assay relative to control; details: time 70-130 min
Chain of Vascular endothelial growth factor receptor 3 (Homo sapiens) (P35916 whole entry): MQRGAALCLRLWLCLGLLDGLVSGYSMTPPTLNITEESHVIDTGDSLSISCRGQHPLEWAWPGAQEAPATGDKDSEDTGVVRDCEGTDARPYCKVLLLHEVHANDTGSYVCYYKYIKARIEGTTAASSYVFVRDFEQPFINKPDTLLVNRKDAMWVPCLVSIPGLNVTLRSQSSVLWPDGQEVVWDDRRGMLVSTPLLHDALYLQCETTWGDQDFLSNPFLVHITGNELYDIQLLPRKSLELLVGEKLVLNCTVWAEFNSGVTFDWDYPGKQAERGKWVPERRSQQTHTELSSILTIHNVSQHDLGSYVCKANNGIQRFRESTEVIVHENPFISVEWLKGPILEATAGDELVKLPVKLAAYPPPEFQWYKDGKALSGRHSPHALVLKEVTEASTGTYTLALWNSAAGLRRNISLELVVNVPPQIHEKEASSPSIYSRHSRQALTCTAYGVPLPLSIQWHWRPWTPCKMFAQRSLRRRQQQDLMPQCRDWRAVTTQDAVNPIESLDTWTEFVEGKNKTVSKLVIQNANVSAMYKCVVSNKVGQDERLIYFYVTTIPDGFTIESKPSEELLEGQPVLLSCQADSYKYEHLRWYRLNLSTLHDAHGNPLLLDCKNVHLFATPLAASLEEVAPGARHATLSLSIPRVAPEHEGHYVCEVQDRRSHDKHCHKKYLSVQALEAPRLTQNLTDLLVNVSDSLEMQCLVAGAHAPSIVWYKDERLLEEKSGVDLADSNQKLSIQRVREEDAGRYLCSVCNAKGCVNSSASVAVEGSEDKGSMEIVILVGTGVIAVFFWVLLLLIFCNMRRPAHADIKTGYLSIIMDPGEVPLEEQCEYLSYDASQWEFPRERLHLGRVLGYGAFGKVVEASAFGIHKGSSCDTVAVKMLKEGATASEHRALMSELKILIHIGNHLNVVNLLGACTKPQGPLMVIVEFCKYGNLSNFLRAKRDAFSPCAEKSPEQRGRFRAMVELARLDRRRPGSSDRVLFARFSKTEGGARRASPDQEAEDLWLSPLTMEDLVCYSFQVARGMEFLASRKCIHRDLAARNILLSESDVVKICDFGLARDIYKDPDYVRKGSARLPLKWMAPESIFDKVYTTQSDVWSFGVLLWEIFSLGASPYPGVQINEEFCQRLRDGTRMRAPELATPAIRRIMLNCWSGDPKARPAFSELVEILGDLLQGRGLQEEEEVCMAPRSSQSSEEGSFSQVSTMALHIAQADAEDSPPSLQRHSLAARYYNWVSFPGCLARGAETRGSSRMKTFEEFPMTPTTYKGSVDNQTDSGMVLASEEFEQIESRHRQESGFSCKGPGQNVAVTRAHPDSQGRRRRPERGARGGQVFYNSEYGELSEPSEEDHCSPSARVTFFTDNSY

[15] = biological target: CDK4/Cyclin D3 (Homo sapiens) (UniProt P11802+P30281); test: Inhibition of CDK4/Cyclin D3 (unknown origin) at 1 uM preincubated for 10 mins followed by substrate addition measured for 60 to 120 mins by HTRF assay relative to control; assay type: protein-complex assay; details: time 70-130 min
[16] = biological target: Ephrin type-A receptor 8 (Homo sapiens) (UniProt P29322); test: Inhibition of EPHA8 (unknown origin) at 1 uM preincubated for 10 mins followed by substrate addition measured for 60 to 120 mins by HTRF assay relative to control; details: time 70-130 min
[17] = test system: MV4-11; test: Antiproliferative activity against human MV4-11 cells incubated for 48 hrs by CCK8 assay; assay type: functional
[18] = biological target: Ephrin type-A receptor 7 (Homo sapiens) (UniProt Q15375); test: Inhibition of EPHA7 (unknown origin) at 1 uM preincubated for 10 mins followed by substrate addition measured for 60 to 120 mins by HTRF assay relative to control; details: time 70-130 min
[19] = biological target: Protein-tyrosine kinase 2-beta (Homo sapiens) (UniProt Q14289); test: Inhibition of PYK2 (unknown origin) at 1 uM preincubated for 10 mins followed by substrate addition measured for 60 to 120 mins by HTRF assay relative to control; details: time 70-130 min
[20] = biological target: Non-receptor tyrosine-protein kinase TYK2 (Homo sapiens) (UniProt P29597); test: Inhibition of TYK2 (unknown origin) at 1 uM preincubated for 10 mins followed by substrate addition measured for 60 to 120 mins by HTRF assay relative to control; details: time 70-130 min
[21] = test system: HT-29; test: Antiproliferative activity against human HT-29 cells incubated for 48 hrs by CCK8 assay; assay type: functional
[22] = biological target: CDK6/cyclin D1 (Homo sapiens) (UniProt P24385+Q00534); test: Inhibition of CDK6/Cyclin D1 (unknown origin) at 1 uM preincubated for 10 mins followed by substrate addition measured for 60 to 120 mins by HTRF assay relative to control; assay type: protein-complex assay; details: time 70-130 min
[23] = biological target: Proto-oncogene tyrosine-protein kinase ROS (Homo sapiens) (UniProt P08922); test: Inhibition of ROS (unknown origin) at 1 uM preincubated for 10 mins followed by substrate addition measured for 60 to 120 mins by HTRF assay relative to control; details: time 70-130 min
Chain of Proto-oncogene tyrosine-protein kinase ROS (Homo sapiens) (P08922 whole entry): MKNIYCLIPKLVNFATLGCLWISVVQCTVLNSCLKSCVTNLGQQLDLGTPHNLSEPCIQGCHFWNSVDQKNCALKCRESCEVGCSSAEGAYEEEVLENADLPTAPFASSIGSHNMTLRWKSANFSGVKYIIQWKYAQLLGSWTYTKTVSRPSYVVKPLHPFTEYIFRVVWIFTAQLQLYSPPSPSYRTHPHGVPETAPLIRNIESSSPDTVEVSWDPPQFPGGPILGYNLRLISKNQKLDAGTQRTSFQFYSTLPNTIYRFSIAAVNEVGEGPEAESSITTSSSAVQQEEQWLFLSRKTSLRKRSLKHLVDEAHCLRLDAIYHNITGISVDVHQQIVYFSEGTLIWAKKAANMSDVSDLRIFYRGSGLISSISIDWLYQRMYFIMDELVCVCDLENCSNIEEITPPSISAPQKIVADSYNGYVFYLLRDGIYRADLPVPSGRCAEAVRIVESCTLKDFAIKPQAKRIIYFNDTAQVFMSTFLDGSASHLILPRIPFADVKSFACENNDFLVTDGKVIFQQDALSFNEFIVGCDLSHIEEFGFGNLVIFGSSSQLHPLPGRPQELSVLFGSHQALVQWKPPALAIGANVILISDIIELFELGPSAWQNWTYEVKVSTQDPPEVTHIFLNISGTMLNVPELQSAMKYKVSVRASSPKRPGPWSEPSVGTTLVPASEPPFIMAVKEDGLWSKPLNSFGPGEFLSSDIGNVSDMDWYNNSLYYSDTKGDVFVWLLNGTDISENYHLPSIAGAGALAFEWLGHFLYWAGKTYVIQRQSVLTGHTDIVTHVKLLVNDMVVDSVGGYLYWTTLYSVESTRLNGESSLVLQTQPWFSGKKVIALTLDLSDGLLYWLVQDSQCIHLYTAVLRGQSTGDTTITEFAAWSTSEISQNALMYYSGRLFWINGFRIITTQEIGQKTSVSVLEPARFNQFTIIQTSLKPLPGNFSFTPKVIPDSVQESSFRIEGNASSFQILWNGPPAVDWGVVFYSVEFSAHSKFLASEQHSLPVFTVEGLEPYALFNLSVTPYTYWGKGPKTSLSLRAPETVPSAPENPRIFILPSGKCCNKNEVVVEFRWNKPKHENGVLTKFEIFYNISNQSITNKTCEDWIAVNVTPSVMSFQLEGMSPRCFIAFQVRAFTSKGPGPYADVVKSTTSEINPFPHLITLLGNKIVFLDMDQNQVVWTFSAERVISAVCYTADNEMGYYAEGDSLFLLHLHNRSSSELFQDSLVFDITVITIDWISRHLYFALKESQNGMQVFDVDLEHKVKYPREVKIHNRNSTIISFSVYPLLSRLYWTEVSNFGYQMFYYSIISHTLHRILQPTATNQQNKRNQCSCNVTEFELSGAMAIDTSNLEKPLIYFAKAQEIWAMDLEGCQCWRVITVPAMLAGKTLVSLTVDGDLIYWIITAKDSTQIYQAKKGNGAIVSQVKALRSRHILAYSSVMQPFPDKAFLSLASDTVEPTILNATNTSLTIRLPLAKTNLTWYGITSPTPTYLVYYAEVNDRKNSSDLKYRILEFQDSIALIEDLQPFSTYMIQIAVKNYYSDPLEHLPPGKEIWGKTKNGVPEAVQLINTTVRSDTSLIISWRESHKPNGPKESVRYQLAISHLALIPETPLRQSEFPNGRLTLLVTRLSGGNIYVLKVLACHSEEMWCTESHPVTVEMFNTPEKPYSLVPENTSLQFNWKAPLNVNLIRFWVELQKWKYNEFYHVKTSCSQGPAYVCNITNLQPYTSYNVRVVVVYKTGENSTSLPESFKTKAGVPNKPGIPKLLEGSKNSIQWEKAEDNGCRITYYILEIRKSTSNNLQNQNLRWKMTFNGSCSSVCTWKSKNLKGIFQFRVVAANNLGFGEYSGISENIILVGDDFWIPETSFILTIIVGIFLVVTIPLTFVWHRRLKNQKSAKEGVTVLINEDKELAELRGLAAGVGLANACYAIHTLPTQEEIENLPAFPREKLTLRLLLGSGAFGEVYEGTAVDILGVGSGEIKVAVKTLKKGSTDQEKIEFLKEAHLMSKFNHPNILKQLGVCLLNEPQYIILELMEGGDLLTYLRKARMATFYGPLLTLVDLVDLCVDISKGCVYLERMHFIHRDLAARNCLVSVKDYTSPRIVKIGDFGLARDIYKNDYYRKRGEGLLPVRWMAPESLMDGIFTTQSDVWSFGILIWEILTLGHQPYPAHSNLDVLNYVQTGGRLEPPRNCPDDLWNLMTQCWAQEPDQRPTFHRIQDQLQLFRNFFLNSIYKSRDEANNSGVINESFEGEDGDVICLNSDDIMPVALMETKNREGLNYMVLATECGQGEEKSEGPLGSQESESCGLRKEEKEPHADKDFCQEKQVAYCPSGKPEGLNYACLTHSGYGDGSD

[24] = biological target: Tyrosine-protein kinase JAK1 (Homo sapiens) (UniProt P23458); test: Inhibition of JAK1 (unknown origin) at 1 uM preincubated for 10 mins followed by substrate addition measured for 60 to 120 mins by HTRF assay relative to control; details: time 70-130 min
[25] = MRT in Sprague-Dawley rat at 2 mg/kg, iv; assay type: ADME, organism-based; details: in vivo
[26] = biological target: Epidermal growth factor receptor (Homo sapiens) (UniProt P00533); test: Inhibition of EGFR (unknown origin) at 1 uM preincubated for 10 mins followed by substrate addition measured for 60 to 120 mins by HTRF assay relative to control; details: time 70-130 min
[27] = biological target: Tyrosine-protein kinase CSK (Homo sapiens) (UniProt P41240); test: Inhibition of CSK (unknown origin) at 1 uM preincubated for 10 mins followed by substrate addition measured for 60 to 120 mins by HTRF assay relative to control; details: time 70-130 min
Chain of Tyrosine-protein kinase CSK (Homo sapiens) (P41240 2-450 limits assumed): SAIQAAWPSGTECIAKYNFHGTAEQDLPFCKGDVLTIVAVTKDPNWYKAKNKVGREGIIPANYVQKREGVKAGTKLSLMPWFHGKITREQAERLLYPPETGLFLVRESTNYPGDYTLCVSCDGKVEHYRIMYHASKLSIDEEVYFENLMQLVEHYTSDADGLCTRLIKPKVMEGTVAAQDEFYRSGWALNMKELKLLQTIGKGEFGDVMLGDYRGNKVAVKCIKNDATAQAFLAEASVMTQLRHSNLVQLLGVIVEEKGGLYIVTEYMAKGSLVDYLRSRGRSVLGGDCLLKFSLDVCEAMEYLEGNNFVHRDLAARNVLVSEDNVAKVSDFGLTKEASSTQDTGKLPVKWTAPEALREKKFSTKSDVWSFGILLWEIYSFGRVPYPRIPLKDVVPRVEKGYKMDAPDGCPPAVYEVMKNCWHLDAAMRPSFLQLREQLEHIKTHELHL

[28] = Toxicity in AML […] mouse model allografted with mouse C1498 cells assessed as body weight loss at 40 to 80 mg/kg, po administered daily for 15 days measured on every 2 days; assay type: organism-based; details: in vivo, 360 h, dose 40-80 mg/kg, time 15 day
[29] = biological target: Tyrosine-protein kinase receptor UFO (Homo sapiens) (UniProt P30530); test: Inhibition of AXL (unknown origin) at 1 uM preincubated for 10 mins followed by substrate addition measured for 60 to 120 mins by HTRF assay relative to control; details: time 70-130 min
[30] = biological target: Ephrin type-A receptor 2 (Homo sapiens) (UniProt P29317); test: Inhibition of EPHA2 (unknown origin) at 1 uM preincubated for 10 mins followed by substrate addition measured for 60 to 120 mins by HTRF assay relative to control; details: time 70-130 min
Chain of Ephrin type-A receptor 2 (Homo sapiens) (P29317 whole entry): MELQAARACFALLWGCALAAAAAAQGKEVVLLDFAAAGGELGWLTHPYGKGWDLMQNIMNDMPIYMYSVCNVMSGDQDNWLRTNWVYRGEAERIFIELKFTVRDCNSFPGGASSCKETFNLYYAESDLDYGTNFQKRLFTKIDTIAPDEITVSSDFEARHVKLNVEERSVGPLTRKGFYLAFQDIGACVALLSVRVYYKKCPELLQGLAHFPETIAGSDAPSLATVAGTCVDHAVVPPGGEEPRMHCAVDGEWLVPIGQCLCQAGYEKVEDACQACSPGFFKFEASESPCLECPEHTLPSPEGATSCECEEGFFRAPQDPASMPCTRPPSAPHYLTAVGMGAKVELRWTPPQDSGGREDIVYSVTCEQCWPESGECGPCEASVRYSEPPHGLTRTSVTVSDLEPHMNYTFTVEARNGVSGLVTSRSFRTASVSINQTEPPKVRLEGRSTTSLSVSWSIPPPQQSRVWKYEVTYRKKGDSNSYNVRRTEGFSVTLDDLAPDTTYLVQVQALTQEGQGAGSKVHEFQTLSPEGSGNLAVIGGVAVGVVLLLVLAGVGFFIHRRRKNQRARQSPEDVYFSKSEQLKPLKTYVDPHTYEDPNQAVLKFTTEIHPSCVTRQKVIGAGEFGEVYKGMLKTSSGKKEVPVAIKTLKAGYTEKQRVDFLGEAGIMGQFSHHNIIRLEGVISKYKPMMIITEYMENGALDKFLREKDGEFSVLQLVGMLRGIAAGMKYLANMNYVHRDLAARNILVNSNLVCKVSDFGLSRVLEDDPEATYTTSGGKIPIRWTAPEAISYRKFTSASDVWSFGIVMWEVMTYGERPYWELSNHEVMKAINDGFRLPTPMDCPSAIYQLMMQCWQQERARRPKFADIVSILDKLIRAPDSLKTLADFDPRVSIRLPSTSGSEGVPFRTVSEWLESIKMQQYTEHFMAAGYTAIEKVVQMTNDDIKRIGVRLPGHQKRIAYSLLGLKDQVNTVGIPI

## NC(=O)c1cccc(-c2cnc3[nH]ccc3c2)c1
[1]
  AUC(0-inf): 310 ng·h/mL
[2]
  inhibition: 13.3%
[3]
  inhibition: 21.6%
[4]
  half-life: 0.81 h
[5]
  inhibition: 0%
[6]
  inhibition: 0%
[7]
  inhibition: 6.16%
[8]
  viability at 1 µM: 93.3%
[9]
  Activity: Non-Toxic
[10]
  Activity: 5.04%
[11]
  inhibition: 38.9%
[12]
  inhibition: 0%
[13]
  inhibition: 15.4%
[14]
  inhibition: 10.7%
[15]
  inhibition: 7.02%
[16]
  inhibition: 0%
[17]
  GI50: 4.61 µM
[18]
  inhibition: 0%
[19]
  inhibition: 3.1%
[20]
  inhibition: 0%
[21]
  GI50: > 50 µM
[22]
  inhibition: 0.37%
[23]
  inhibition: 8.63%
[24]
  inhibition: 31.5%
[25]
  MRT: 1.5 h
[26]
  inhibition: 8.01%
[27]
  inhibition: 0%
[28]
  Activity: Non-Toxic
[29]
  inhibition: 12.5%
[30]
  inhibition: 0%
